# Experiments:
# Assay in all cases: relative viability (nuclei count vs DMSO), 5 days (fraction); higher = more cells survive
# JZL-184 = compound: C1CN(CCC1C(C2=CC3=C(C=C2)OCO3)(C4=CC5=C(C=C4)OCO5)O)C(=O)OC6=CC=C(C=C6)[N+](=O)[O-] [JZL-184]
# Procedure, shortened: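 Acceptance criteria were a control CV below 25% and at least one doubling per plate. Lung cancer cell lines in 1536-well plates got five library-drug doses (not always all listed) √10 apart by pinning and were left 5 days with no medium change. Viability divides treated-well nuclei by vehicle-well nuclei and is the median across plates. Nuclei were counted by MetaXpress from 4× Hoechst images.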
# JZL-184 + Trametinib = compound: C1CN(CCC1C(C2=CC3=C(C=C2)OCO3)(C4=CC5=C(C=C4)OCO5)O)C(=O)OC6=CC=C(C=C6)[N+](=O)[O-] [JZL-184] + CC(=O)Nc1cccc(-n2c(=O)n(C3CC3)c(=O)c3c(Nc4ccc(I)cc4F)n(C)c(=O)c(C)c32)c1 [Trametinib] (partner 0.02 µM)
# Procedure, shortened: (§1)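 Cells from lung cancer lines were seeded into 1536-well plates and, one day later, dosed by pin tool. Treatments were either a single drug or a fixed dose of an anchor drug with five library-drug doses (not always all listed) in √10 steps. After 5 days, nuclei were stained in a one-step fixation (final 0.05% Triton X-100, 1% formaldehyde, 1 ug/ml Hoechst) and counted on 4× images, and relative viability is the treated-to-vehicle nuclei ratio, as the median of duplicate plates.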
# JZL-184 + Palbociclib = compound: C1CN(CCC1C(C2=CC3=C(C=C2)OCO3)(C4=CC5=C(C=C4)OCO5)O)C(=O)OC6=CC=C(C=C6)[N+](=O)[O-] [JZL-184] + CC(=O)c1c(C)c2cnc(Nc3ccc(N4CCNCC4)cn3)nc2n(C2CCCC2)c1=O [Palbociclib] (partner 0.5 µM)
# Procedure, shortened: as §1
# JZL-184 + Luminespib = compound: C1CN(CCC1C(C2=CC3=C(C=C2)OCO3)(C4=CC5=C(C=C4)OCO5)O)C(=O)OC6=CC=C(C=C6)[N+](=O)[O-] [JZL-184] + CCNC(=O)c1noc(-c2cc(C(C)C)c(O)cc2O)c1-c1ccc(CN2CCOCC2)cc1 [Luminespib] (partner 0.01 µM)
# Procedure, shortened: as §1
# JZL-184 + OSI-027 = compound: C1CN(CCC1C(C2=CC3=C(C=C2)OCO3)(C4=CC5=C(C=C4)OCO5)O)C(=O)OC6=CC=C(C=C6)[N+](=O)[O-] [JZL-184] + COc1cccc2cc(-c3nc([C@H]4CC[C@H](C(=O)O)CC4)n4ncnc(N)c34)[nH]c12 [OSI-027] (partner 0.5 µM)
# Procedure, shortened: as §1
# JZL-184 + Tozasertib = compound: C1CN(CCC1C(C2=CC3=C(C=C2)OCO3)(C4=CC5=C(C=C4)OCO5)O)C(=O)OC6=CC=C(C=C6)[N+](=O)[O-] [JZL-184] + Cc1cc(Nc2cc(N3CCN(C)CC3)nc(Sc3ccc(NC(=O)C4CC4)cc3)n2)n[nH]1 [Tozasertib] (partner 0.1 µM)
# Procedure, shortened: as §1
# JZL-184 + Dasatinib = compound: C1CN(CCC1C(C2=CC3=C(C=C2)OCO3)(C4=CC5=C(C=C4)OCO5)O)C(=O)OC6=CC=C(C=C6)[N+](=O)[O-] [JZL-184] + Cc1nc(Nc2ncc(C(=O)Nc3c(C)cccc3Cl)s2)cc(N2CCN(CCO)CC2)n1 [Dasatinib] (partner 0.075 µM)
# Procedure, shortened: as §1
# JZL-184 + Phenformin = compound: C1CN(CCC1C(C2=CC3=C(C=C2)OCO3)(C4=CC5=C(C=C4)OCO5)O)C(=O)OC6=CC=C(C=C6)[N+](=O)[O-] [JZL-184] + N=C(N)NC(=N)NCCc1ccccc1 [Phenformin] (partner 250 µM)
# Procedure, shortened: as §1
# JZL-184 + AZD7762 = compound: C1CN(CCC1C(C2=CC3=C(C=C2)OCO3)(C4=CC5=C(C=C4)OCO5)O)C(=O)OC6=CC=C(C=C6)[N+](=O)[O-] [JZL-184] + NC(=O)Nc1cc(-c2cccc(F)c2)sc1C(=O)N[C@H]1CCCNC1 [AZD7762] (partner 0.2 µM)
# Procedure, shortened: as §1
# JZL-184 + Pemetrexed = compound: C1CN(CCC1C(C2=CC3=C(C=C2)OCO3)(C4=CC5=C(C=C4)OCO5)O)C(=O)OC6=CC=C(C=C6)[N+](=O)[O-] [JZL-184] + Nc1nc2[nH]cc(CCc3ccc(C(=O)N[C@@H](CCC(=O)O)C(=O)O)cc3)c2c(=O)[nH]1 [Pemetrexed] (partner 0.2 µM)
# Procedure, shortened: as §1
# JZL-184 + Decitabine = compound: C1CN(CCC1C(C2=CC3=C(C=C2)OCO3)(C4=CC5=C(C=C4)OCO5)O)C(=O)OC6=CC=C(C=C6)[N+](=O)[O-] [JZL-184] + Nc1ncn([C@H]2C[C@H](O)[C@@H](CO)O2)c(=O)n1 [Decitabine] (partner 2 µM)
# Procedure, shortened: as §1
# JZL-184 + Vorinostat = compound: C1CN(CCC1C(C2=CC3=C(C=C2)OCO3)(C4=CC5=C(C=C4)OCO5)O)C(=O)OC6=CC=C(C=C6)[N+](=O)[O-] [JZL-184] + O=C(CCCCCCC(=O)Nc1ccccc1)NO [Vorinostat] (partner 1 µM)
# Procedure, shortened: as §1
# JZL-184 + Olaparib = compound: C1CN(CCC1C(C2=CC3=C(C=C2)OCO3)(C4=CC5=C(C=C4)OCO5)O)C(=O)OC6=CC=C(C=C6)[N+](=O)[O-] [JZL-184] + O=C(c1cc(Cc2n[nH]c(=O)c3ccccc23)ccc1F)N1CCN(C(=O)C2CC2)CC1 [Olaparib] (partner 8 µM)
# Procedure, shortened: as §1
cell line,measurement,setting,value
NCI-H522,relative viability,JZL-184; 0.04 µM,1.24
same,relative viability,JZL-184; 0.4 µM,0.896
same,relative viability,JZL-184; 1.265 µM,1.05
same,relative viability,JZL-184; 4 µM,0.901
same,relative viability,JZL-184 + Trametinib; first compound 0.04 µM,0.856
same,relative viability,JZL-184 + Trametinib; first compound 0.4 µM,0.758
same,relative viability,JZL-184 + Trametinib; first compound 1.265 µM,0.791
same,relative viability,JZL-184 + Trametinib; first compound 4 µM,0.802
same,relative viability,JZL-184 + Palbociclib; first compound 0.04 µM,1.23
same,relative viability,JZL-184 + Palbociclib; first compound 0.4 µM,0.936
same,relative viability,JZL-184 + Palbociclib; first compound 1.265 µM,1.13
same,relative viability,JZL-184 + Palbociclib; first compound 4 µM,0.903
same,relative viability,JZL-184 + Luminespib; first compound 0.04 µM,1.29
same,relative viability,JZL-184 + Luminespib; first compound 0.4 µM,1.14
same,relative viability,JZL-184 + Luminespib; first compound 1.265 µM,1.18
same,relative viability,JZL-184 + Luminespib; first compound 4 µM,1.29
same,relative viability,JZL-184 + OSI-027; first compound 0.04 µM,0.906
same,relative viability,JZL-184 + OSI-027; first compound 0.4 µM,0.748
same,relative viability,JZL-184 + OSI-027; first compound 1.265 µM,0.748
same,relative viability,JZL-184 + OSI-027; first compound 4 µM,0.748
same,relative viability,JZL-184 + Tozasertib; first compound 0.04 µM,0.668
same,relative viability,JZL-184 + Tozasertib; first compound 0.4 µM,0.5
same,relative viability,JZL-184 + Tozasertib; first compound 1.265 µM,0.618
same,relative viability,JZL-184 + Tozasertib; first compound 4 µM,0.563
same,relative viability,JZL-184 + Dasatinib; first compound 0.04 µM,0.967
same,relative viability,JZL-184 + Dasatinib; first compound 0.4 µM,0.821
same,relative viability,JZL-184 + Dasatinib; first compound 1.265 µM,0.842
same,relative viability,JZL-184 + Dasatinib; first compound 4 µM,0.946
same,relative viability,JZL-184 + Phenformin; first compound 0.04 µM,0.606
same,relative viability,JZL-184 + Phenformin; first compound 0.4 µM,0.667
same,relative viability,JZL-184 + Phenformin; first compound 1.265 µM,0.59
same,relative viability,JZL-184 + Phenformin; first compound 4 µM,0.635
same,relative viability,JZL-184 + AZD7762; first compound 0.04 µM,0.898
same,relative viability,JZL-184 + AZD7762; first compound 0.4 µM,0.706
same,relative viability,JZL-184 + AZD7762; first compound 1.265 µM,0.885
same,relative viability,JZL-184 + AZD7762; first compound 4 µM,0.781
same,relative viability,JZL-184 + Pemetrexed; first compound 0.04 µM,1.23
same,relative viability,JZL-184 + Pemetrexed; first compound 0.4 µM,0.981
same,relative viability,JZL-184 + Pemetrexed; first compound 1.265 µM,1.02
same,relative viability,JZL-184 + Pemetrexed; first compound 4 µM,1.16
same,relative viability,JZL-184 + Decitabine; first compound 0.04 µM,0.689
same,relative viability,JZL-184 + Decitabine; first compound 0.4 µM,0.615
same,relative viability,JZL-184 + Decitabine; first compound 1.265 µM,0.685
same,relative viability,JZL-184 + Decitabine; first compound 4 µM,0.611
same,relative viability,JZL-184 + Vorinostat; first compound 0.04 µM,0.937
same,relative viability,JZL-184 + Vorinostat; first compound 0.4 µM,0.858
same,relative viability,JZL-184 + Vorinostat; first compound 1.265 µM,0.952
same,relative viability,JZL-184 + Vorinostat; first compound 4 µM,0.947
same,relative viability,JZL-184 + Olaparib; first compound 0.04 µM,0.709
same,relative viability,JZL-184 + Olaparib; first compound 0.4 µM,0.62
same,relative viability,JZL-184 + Olaparib; first compound 1.265 µM,0.648
same,relative viability,JZL-184 + Olaparib; first compound 4 µM,0.574

# — the supplement of paper PMC10307832
